Data published in patent publication US20250172542A1, “METHOD FOR INDUCING ARTIFICIAL AGEING IN A STEM CELL AND USES OF SAID CELL” (Clock Bio Limited, priority 2022, published 2025).

Key:
Bob NGN2 and Bob N2P iNs = test: RT-PCR of neuronal markers in iNeurons treated with or without cumate; format: cell-based, human; details: RT-PCR relative to PBGD1
Protocol: (§1) NGN2 and NGN2-Progerin iPSCs were dissociated into single cells with Accutase and plated onto PDL/Geltrex coated dishes at a density of 30K cells per cm^2. Forward programming was initiated 24 hours after the split. The induction was performed in DMEM/F-12 supplemented with Glutamax (100×), Non-Essential Amino Acids (100×), 50 μM 2-Mercaptoethanol (Gibco), 1% Penicillin/Streptomycin, 1 μg/mL Dox. After 2 days of induction, the medium was switched to Neurobasal-medium supplemented with Glutamax (100×), B27 (50×), 10 ng/mL BDNF (Peprotech), 10 ng/mL NT3 (R&D Systems), 1% Penicillin/Streptomycin, and 1 μg/mL Dox. In order to age NGN2-Progerin iNeurons (iNs), at D7 post induction, cumate was added to the medium for 7 days. Pre-aged iNs were induced as described above from 5 days aged NGN-Progerin iPSCs, no additional cumate was added during the induction process.
cDNA synthesis was performed with the Maxima First Strand cDNA Synthesis Kit (Thermo Fisher Scientific). PowerUp SYBR Green Master Mix (Thermo Fisher Scientific) was used for RT-PCR. Samples were run on the QuantStudio 6 Flex Real-Timer PCR System machine (Applied Biosystems). All samples were analysed in technical duplicates and normalised to the house-keeping gene Porphobilinogen Deaminase 1 (PBGD1). Results were analysed with the ΔΔCt method. […]

[1] = tested on: GFP-Progerin expression under the cumate switch (CymR/CuO); test: Cumate dose response assay (GFP-Progerin expression in iNeurons); format: cell-based, human; details: neurons induced with doxycycline and cumate
Protocol: as §1
In order to allow for a separate control of NGN2 and progerin expression, the OPTi-OX technology was used and a dual system designed which is based on both the TetOn (Baron and Bujard (2000)) and the cumate switch (Mullick et al. (2006); Sato et al. (2020); and Seo and Schmidt-Dannert (2019)) inducible systems. This new system was referred to as (Opti-OX)^2. The cumate repressor (CymR) was first cloned into the original ROSA26 targeting vector, linked by a 2A sequence to rtTA (FIGS. 7A-F). […]

CC(C)c1ccc(C(=O)O)cc1 [cumate]
effect of cumate itself on gene expression (MAP2 and synapsin-1 downregulation) (Bob NGN2 and Bob N2P iNs): not responsible for the changes seen in gene expression
GFP expression as a function of cumate dose [1]: titrated by adjusting the dose
